Values quoted from earlier work as cited in PubChem BioAssay AID1259409 (Chemical Carcinogenesis Research Information System (CCRIS), 2018).

Tested on: rodent chemically induced tumor inhibition, incidence and multiplicity
Assay: CCRIS tumor inhibitor studies

O=P(O)(O)OC1C(OP(=O)(O)O)C(OP(=O)(O)O)C(OP(=O)(O)O)C(OP(=O)(O)O)C1OP(=O)(O)O (stereo not given)
tumour outcome (control, treated, inhibition, significance) (Carcinogen: 2,2'-DIHYDROXY-DI-N-PROPYLNITROSAMINE, 53609-64-6, N-ETHYL-N-HYDROXYETHYLNITROSAMINE, 13147-25-6, 3,2'-DIMETHYL-4-AMINO-, Carcinogen: 2,2'-DIHYDROXY-DI-N-PROPYLNITROSAMINE, 53609-64-6, N-ETHYL-N-HYDROXYETHYLNITROSAMINE, 13147-25-6, 3,2'-DIMETHYL-4-AMINO-, Dose [Inhibitor]: 0, 2% IN DIET FOR 32 WK BEGINNING 1 WK POST CARCINOGEN TREATMENT (STUDY DURATION: 36 WK), Route [Inhibitor]: ORAL, Species: RAT, Strain/Sex: F344/MALE, Target Tissue: Type of Lesion: LUNG: CARCINOMA, Dose [Carcinogen]: 1000 MG/KG BW DHPN TWICE, 1500 MG/KG BW EHEN TWICE, 75 MG/KG BW 3 TIMES ADMINISTERED OVER FIRST 3 WK, Promoter: NONE USED): 1/14 (7%), 3/12 (25%), -257%, not significant
tumour outcome (control, treated, inhibition, significance) (Carcinogen: 2,2'-DIHYDROXY-DI-N-PROPYLNITROSAMINE, 53609-64-6, N-ETHYL-N-HYDROXYETHYLNITROSAMINE, 13147-25-6, 3,2'-DIMETHYL-4-AMINO-, Carcinogen: 2,2'-DIHYDROXY-DI-N-PROPYLNITROSAMINE, 53609-64-6, N-ETHYL-N-HYDROXYETHYLNITROSAMINE, 13147-25-6, 3,2'-DIMETHYL-4-AMINO-, Dose [Inhibitor]: 0, 2% IN DIET FOR 32 WK BEGINNING 1 WK POST CARCINOGEN TREATMENT (STUDY DURATION: 36 WK), Route [Inhibitor]: ORAL, Species: RAT, Strain/Sex: F344/MALE, Target Tissue: Type of Lesion: THYROID GLAND: ADENOMA, Dose [Carcinogen]: 1000 MG/KG BW DHPN TWICE, 1500 MG/KG BW EHEN TWICE, 75 MG/KG BW 3 TIMES ADMINISTERED OVER FIRST 3 WK, Promoter: NONE USED): 3/14 (21%), 3/12 (25%), -19%, not significant
tumour outcome (control, treated, inhibition, significance) (Carcinogen: 2,2'-DIHYDROXY-DI-N-PROPYLNITROSAMINE, 53609-64-6, N-ETHYL-N-HYDROXYETHYLNITROSAMINE, 13147-25-6, 3,2'-DIMETHYL-4-AMINO-, Carcinogen: 2,2'-DIHYDROXY-DI-N-PROPYLNITROSAMINE, 53609-64-6, N-ETHYL-N-HYDROXYETHYLNITROSAMINE, 13147-25-6, 3,2'-DIMETHYL-4-AMINO-, Dose [Inhibitor]: 0, 2% IN DIET FOR 32 WK BEGINNING 1 WK POST CARCINOGEN TREATMENT (STUDY DURATION: 36 WK), Route [Inhibitor]: ORAL, Species: RAT, Strain/Sex: F344/MALE, Target Tissue: Type of Lesion: URINARY BLADDER: CARCINOMA, Dose [Carcinogen]: 1000 MG/KG BW DHPN TWICE, 1500 MG/KG BW EHEN TWICE, 75 MG/KG BW 3 TIMES ADMINISTERED OVER FIRST 3 WK, Promoter: NONE USED): 1/14 (7%), 2/12 (17%), -143%, not significant
outcome (Carcinogen: 2,2'-DIHYDROXY-DI-N-PROPYLNITROSAMINE, 53609-64-6, N-ETHYL-N-HYDROXYETHYLNITROSAMINE, 13147-25-6, 3,2'-DIMETHYL-4-AMINO-, Carcinogen: 2,2'-DIHYDROXY-DI-N-PROPYLNITROSAMINE, 53609-64-6, N-ETHYL-N-HYDROXYETHYLNITROSAMINE, 13147-25-6, 3,2'-DIMETHYL-4-AMINO-, Dose [Inhibitor]: 0, 2% IN DIET FOR 32 WK BEGINNING 1 WK POST CARCINOGEN TREATMENT (STUDY DURATION: 36 WK), Route [Inhibitor]: ORAL, Species: RAT, Strain/Sex: F344/MALE, Target Tissue: Type of Lesion: URINARY BLADDER: PAPILLOMA, Dose [Carcinogen]: 1000 MG/KG BW DHPN TWICE, 1500 MG/KG BW EHEN TWICE, 75 MG/KG BW 3 TIMES ADMINISTERED OVER FIRST 3 WK, Promoter: NONE USED): 0/14 (0%), 6/12 (50%), -100%, p<0.01
tumour outcome (control, treated, inhibition, significance) (Carcinogen: 2,2'-DIHYDROXY-DI-N-PROPYLNITROSAMINE, 53609-64-6, N-ETHYL-N-HYDROXYETHYLNITROSAMINE, 13147-25-6, 3,2'-DIMETHYL-4-AMINO-, Carcinogen: 2,2'-DIHYDROXY-DI-N-PROPYLNITROSAMINE, 53609-64-6, N-ETHYL-N-HYDROXYETHYLNITROSAMINE, 13147-25-6, 3,2'-DIMETHYL-4-AMINO-, Dose [Inhibitor]: 0, 2% IN DIET FOR 32 WK BEGINNING 1 WK POST CARCINOGEN TREATMENT (STUDY DURATION: 36 WK), Route [Inhibitor]: ORAL, Species: RAT, Strain/Sex: F344/RAT, Target Tissue: Type of Lesion: LARGE INTESTINE: ADENOMA, Dose [Carcinogen]: 1000 MG/KG BW DHPN TWICE, 1500 MG/KG BW EHEN TWICE, 75 MG/KG BW 3 TIMES ADMINISTERED OVER FIRST 3 WK, Promoter: NONE USED): 7/14 (50%), 5/12 (42%), 16%, not significant
tumour outcome (control, treated, inhibition, significance) (Carcinogen: 7,12-DIMETHYLBENZ(A)ANTHRACENE, 57-97-6, Dose [Inhibitor]: 0, 1 MG IN 100 µL ACETONE IMMEDIATELY AFTER CARCINOGEN DOSE 2/WK FOR 30 WK (STUDY DURATION: 30 WK), Route [Inhibitor]: DERMAL, Species: MOUSE, Strain/Sex: SWISS/FEMALE, Target Tissue: Type of Lesion: SKIN: TUMOR, Dose [Carcinogen]: 5 UG IN 100 µL ACETONE 2/WK FOR 30 WK): 8/8 (100%), 4/14 (26%), 74%, not calculated
tumour outcome (control, treated, inhibition, significance) (Carcinogen: 7,12-DIMETHYLBENZ(A)ANTHRACENE, 57-97-6, Dose [Inhibitor]: 0, 5 MG IN 100 µL ACETONE IMMEDIATELY AFTER CARCINOGEN DOSE 2/WK FOR 30 WK (STUDY DURATION: 30 WK), Route [Inhibitor]: DERMAL, Species: MOUSE, Strain/Sex: SWISS/FEMALE, Target Tissue: Type of Lesion: SKIN: TUMOR, Dose [Carcinogen]: 5 UG IN 100 µL ACETONE 2/WK FOR 30 WK): 8/8 (100%), 1/14 (6.6%), 93%, not calculated
tumour outcome (control, treated, inhibition, significance) (Carcinogen: 7,12-DIMETHYLBENZ(A)ANTHRACENE, 57-97-6, Dose [Inhibitor]: 0, 100 UG IN 100 µL ACETONE IMMEDIATELY AFTER CARCINOGEN DOSE 2/WK FOR 30 WK (STUDY DURATION: 30 WK), Route [Inhibitor]: DERMAL, Species: MOUSE, Strain/Sex: SWISS/FEMALE, Target Tissue: Type of Lesion: SKIN: TUMOR, Dose [Carcinogen]: 5 UG IN 100 µL ACETONE 2/WK FOR 30 WK): 8/8 (100%), 5/13 (40%), 60%, not calculated
tumour outcome (control, treated, inhibition, significance) (Carcinogen: 7,12-DIMETHYLBENZ[A]ANTHRACENE [57-97-6], Dose [Inhibitor]: 2% IN DIET FOR 35 WK BEGINNING 1 WK POST LAST CARCINOGEN DOSE (STUDY DURATION: 35 WK), Route [Inhibitor]: ORAL, Species: RAT, Strain/Sex: SPRAGUE-DAWLEY/FEMALE, Target Tissue: Type of Lesion: MAMMARY GLAND: CARCINOMA, Dose [Carcinogen]: 50 MG/KG BW ONCE (STUDY DURATION: 36 WK), Promoter: NONE): 14/15 (93%), 14/15 (93%), 0%, not significant
tumour outcome (control, treated, inhibition, significance) (Carcinogen: 7,12-DIMETHYLBENZ[A]ANTHRACENE [57-97-6], Dose [Inhibitor]: 2% IN DIET FOR 35 WK BEGINNING 1 WK POST LAST CARCINOGEN DOSE (STUDY DURATION: 35 WK), Route [Inhibitor]: ORAL, Species: RAT, Strain/Sex: SPRAGUE-DAWLEY/FEMALE, Target Tissue: Type of Lesion: MAMMARY GLAND: FIBROADENOMA, Dose [Carcinogen]: 50 MG/KG BW ONCE (STUDY DURATION: 36 WK), Promoter: NONE): 3/15 (20%), 4/15 (27%), -35%, not significant
